Test results reported in US7799809B2, “Carboxamide compounds and their use as calpain inhibitors” (Abbott GmbH & Co. KG, priority 2006, dated 2010).

What was measured:
Type in all cases: biochemical
cathepsin B = target: T1, cathepsin B (Homo sapiens, UniProt P07858); test: Cathepsin B enzyme inhibition in vitro (kinetic fluorescence assay); settings: cathepsin B isolated from human liver vs calpain I
T1 construct: cathepsin B—isolated from human liver (Calbiochem #219362); purchased Calbiochem 219362; host or cells: human liver (tissue-derived)
Procedure, shortened: (§1)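 Kinetic fluorescence (ex 390/em 460 nm) at room temperature in 50 mM MES, 2 mM EDTA, 0.05% Brij 35, 2.5 mM L-cysteine, pH 6.0. Cathepsin B (liver, 0.25 nM) with 100 μM Z-Phe-Arg-AMC; cathepsin L (liver, 1 nM) with 2 μM Z-Phe-Arg-AMC; recombinant E. coli cathepsin S (0.5 nM) with 20 μM Z-Val-Val-Arg-AMC. Ki via Cheng-Prusoff.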

cathepsin K = target: T2, cathepsin K (Homo sapiens, UniProt P43235); test: Cathepsin K enzyme inhibition in vitro (kinetic fluorescence assay); settings: cathepsin K activated from recombinant human procathepsin K vs calpain I
T2 construct: purchased Calbiochem 342001; host or cells: E. coli
T2 sequence (P43235 115-329): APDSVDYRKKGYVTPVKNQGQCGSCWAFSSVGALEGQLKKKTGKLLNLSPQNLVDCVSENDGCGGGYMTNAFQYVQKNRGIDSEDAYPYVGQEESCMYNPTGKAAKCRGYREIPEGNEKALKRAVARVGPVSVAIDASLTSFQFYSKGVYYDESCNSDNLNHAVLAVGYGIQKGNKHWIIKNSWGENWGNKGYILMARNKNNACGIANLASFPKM

cathepsin L = target: T3, cathepsin L (Homo sapiens, UniProt P07711); test: Cathepsin L enzyme inhibition in vitro (kinetic fluorescence assay); settings: cathepsin L isolated from human liver vs calpain I
T3 construct: cathepsin L—isolated from human liver (Calbiochem #219402); purchased Calbiochem 219402; host or cells: human liver (tissue-derived)
Procedure, shortened: as §1

cathepsin S = target: T4, cathepsin S (Homo sapiens, UniProt P25774); test: Cathepsin S enzyme inhibition in vitro (kinetic fluorescence assay); settings: recombinant human cathepsin S vs calpain I
T4 construct: purchased Calbiochem 219343; host or cells: E. coli
Procedure, shortened: as §1

T3 sequence (P07711 114-333): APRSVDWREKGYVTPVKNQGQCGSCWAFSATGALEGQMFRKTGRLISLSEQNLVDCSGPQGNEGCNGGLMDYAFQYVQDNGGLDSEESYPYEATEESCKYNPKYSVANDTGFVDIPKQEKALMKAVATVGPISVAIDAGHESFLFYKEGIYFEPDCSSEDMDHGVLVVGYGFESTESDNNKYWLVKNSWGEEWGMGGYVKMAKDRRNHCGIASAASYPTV
T4 sequence (P25774 115-331): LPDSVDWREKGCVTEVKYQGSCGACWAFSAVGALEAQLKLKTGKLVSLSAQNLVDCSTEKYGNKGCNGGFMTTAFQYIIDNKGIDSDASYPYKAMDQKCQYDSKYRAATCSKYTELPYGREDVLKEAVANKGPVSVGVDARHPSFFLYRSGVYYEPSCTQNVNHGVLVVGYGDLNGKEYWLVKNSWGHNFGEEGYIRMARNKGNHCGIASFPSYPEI

Row | Compound | Sel cat. B: Ki(cathepsin B)/Ki(calpain) ratio (cathepsin B) | Sel cat. K: Ki(cathepsin K)/Ki(calpain) ratio (cathepsin K) | Sel cat. L: Ki(cathepsin L)/Ki(calpain) ratio (cathepsin L) | Sel cat. S: Ki(cathepsin S)/Ki(calpain) ratio (cathepsin S)
1 | NC(=O)C(=O)C(Cc1ccccc1)NC(=O)c1cccnc1-n1ccc(-c2cccc(N3CCOCC3)c2)n1 (centres unmarked) [Example 58, N-(3-Amino-1-benzyl-2,3-dioxopropyl)-2-[3-(3-morpholin-4-ylphenyl)-1H-pyrazol-1-yl]nicotinamide] | + (+ means 10≦Ki(cathepsin B)/Ki(calpain)<30) | + (+ means 10≦Ki(cathepsin K)/Ki(calpain)<30) | ++ (++ means a Ki(cathepsin L)/Ki(calpain) ratio of ≧50) | ++ (++ means a Ki(cathepsin S)/Ki(calpain) ratio of ≧100)
2 | NC(=O)C(=O)C(Cc1ccccc1)NC(=O)c1cccnc1-n1ccc(-c2cccc(C(F)(F)F)c2)n1 (centres unmarked) [Example 83, N-(3-Amino-1-benzyl-2,3-dioxopropyl)-2-{3-[3-(trifluoromethyl)phenyl]-1H-pyrazol-1-yl}nicotinamide] | + (+ means 10≦Ki(cathepsin B)/Ki(calpain)<30) | ++ (++ means a Ki(cathepsin K)/Ki(calpain) ratio of ≧30) | ++ (++ means a Ki(cathepsin L)/Ki(calpain) ratio of ≧50) | ++ (++ means a Ki(cathepsin S)/Ki(calpain) ratio of ≧100)
3 | NC(=O)C(=O)C(Cc1ccccc1)NC(=O)c1cccnc1-n1ccc(-c2ccccc2Cl)n1 (centres unmarked) [Example 54, N-(3-Amino-1-benzyl-2,3-dioxopropyl)-2-[3-(2-chlorophenyl)-1H-pyrazol-1-yl]nicotinamide] | ++ (++ means a Ki(cathepsin B)/Ki(calpain) ratio of ≧30) | ++ (++ means a Ki(cathepsin K)/Ki(calpain) ratio of ≧30) | ++ (++ means a Ki(cathepsin L)/Ki(calpain) ratio of ≧50) | ++ (++ means a Ki(cathepsin S)/Ki(calpain) ratio of ≧100)
4 | NC(=O)C(=O)C(Cc1ccccc1)NC(=O)c1cccnc1-n1ccc(-c2cccc3cccnc23)n1 (centres unmarked) [Example 160, N-[3-amino-2,3-dioxo-1-(phenylmethyl)propyl]-2-(3-quinolin-8-yl-1H-pyrazol-1-yl)pyridine-3-carboxamide] | ++ (++ means a Ki(cathepsin B)/Ki(calpain) ratio of ≧30) | ++ (++ means a Ki(cathepsin K)/Ki(calpain) ratio of ≧30) | ++ (++ means a Ki(cathepsin L)/Ki(calpain) ratio of ≧50) | ++ (++ means a Ki(cathepsin S)/Ki(calpain) ratio of ≧100)
5 | COc1ccccc1-c1ccn(-c2ncccc2C(=O)NC(Cc2ccccc2)C(=O)C(N)=O)n1 (centres unmarked) [Example 90, N-[3-Amino-2,3-dioxo-1-(phenylmethyl)propyl]-2-{3-[2-(methyloxy)phenyl]-1H-pyrazol-1-yl}pyridine-3-carboxamide] | ++ (++ means a Ki(cathepsin B)/Ki(calpain) ratio of ≧30) | + (+ means 10≦Ki(cathepsin K)/Ki(calpain)<30) | ++ (++ means a Ki(cathepsin L)/Ki(calpain) ratio of ≧50) | ++ (++ means a Ki(cathepsin S)/Ki(calpain) ratio of ≧100)
